{
  "source": "ChEMBL document CHEMBL1138276",
  "about": "“Discovery of small-molecule inhibitors of tyrosinase” (Bioorg Med Chem Lett, 2007)",
  "key": {"[1]": {"target": "T1, Tyrosinase (Agaricus bisporus) (UniProt O42713)", "T1 sequence (whole entry)": "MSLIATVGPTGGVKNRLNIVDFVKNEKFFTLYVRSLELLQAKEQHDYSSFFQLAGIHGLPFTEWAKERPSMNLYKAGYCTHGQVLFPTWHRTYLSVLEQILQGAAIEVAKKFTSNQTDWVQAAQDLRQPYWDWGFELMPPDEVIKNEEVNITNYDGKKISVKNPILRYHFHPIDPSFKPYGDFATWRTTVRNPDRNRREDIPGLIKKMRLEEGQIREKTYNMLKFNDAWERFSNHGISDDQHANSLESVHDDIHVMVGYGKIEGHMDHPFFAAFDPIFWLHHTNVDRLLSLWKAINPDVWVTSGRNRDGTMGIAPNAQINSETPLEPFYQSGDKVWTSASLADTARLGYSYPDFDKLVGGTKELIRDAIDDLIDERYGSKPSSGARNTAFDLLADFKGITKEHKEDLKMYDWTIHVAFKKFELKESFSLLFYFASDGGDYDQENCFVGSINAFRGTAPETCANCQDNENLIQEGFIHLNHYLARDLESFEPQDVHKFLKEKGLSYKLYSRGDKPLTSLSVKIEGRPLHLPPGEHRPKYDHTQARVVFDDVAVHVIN", "experiment": "Inhibition of mushroom tyrosinase at 1.7 uM"}, "[2]": {"target": "T1, Tyrosinase (Agaricus bisporus)", "experiment": "Inhibition of mushroom tyrosinase at 15 uM"}, "[3]": {"experiment": "(§1) Decrease of pigmentation in human MNT1 cells at 15 uM after 4 days", "type": "functional", "settings": "MNT-1, 96 h"}, "Tyrosinase": {"target": "T2, Tyrosinase (Agaricus bisporus, UniProt O42713)", "T2 sequence (O42713 whole entry)": "T1 sequence (whole entry)", "experiment": "Inhibition of mushroom tyrosinase"}, "MNT1": {"tested_on": "MNT1", "experiment": "as §1", "type": "functional"}},
  "data": [
    {"smiles": "S=c1[nH]c(-c2ccc3c(c2)OCO3)cn1-c1ccc(Oc2ccccc2)cc1", "values": [
      {"measurement": "inhibition", "setting": "[1]", "result": 41, "unit": "%"},
      {"measurement": "inhibition", "setting": "[2]", "result": 54, "unit": "%"},
      {"measurement": "inhibition at 15 µM", "setting": "[3]", "result": 44, "unit": "%"}
    ]},
    {"smiles": "O=C(O)c1cccc(Nc2nc(-c3ccc(O)cc3O)cs2)c1", "values": [
      {"measurement": "inhibition at 15 µM", "setting": "[3]", "result": -6, "unit": "%"}
    ]},
    {"smiles": "COc1ccc2nc(SCC(=O)Nc3ccc4c(c3)OCCO4)[nH]c2c1", "values": [
      {"measurement": "inhibition", "setting": "[1]", "result": 40, "unit": "%"},
      {"measurement": "inhibition", "setting": "[2]", "result": 43, "unit": "%"},
      {"measurement": "inhibition at 15 µM", "setting": "[3]", "result": 34, "unit": "%"}
    ]},
    {"smiles": "CCCCCOc1ccc(NC2=C(N3CCCC3)C(=O)c3ccccc3C2=O)cc1", "values": [
      {"measurement": "inhibition", "setting": "[1]", "result": 47, "unit": "%"},
      {"measurement": "inhibition", "setting": "[2]", "result": 51, "unit": "%"},
      {"measurement": "inhibition at 15 µM", "setting": "[3]", "result": 48, "unit": "%"}
    ]},
    {"smiles": "Oc1ccc(-c2csc(Nc3ccccn3)n2)c(O)c1", "values": [
      {"measurement": "inhibition at 15 µM", "setting": "[3]", "result": 54, "unit": "%"}
    ]},
    {"smiles": "Cc1ccccc1NC(=O)CSC(N)=O", "values": [
      {"measurement": "inhibition", "setting": "[1]", "result": 47, "unit": "%"},
      {"measurement": "inhibition", "setting": "[2]", "result": 66, "unit": "%"},
      {"measurement": "inhibition at 15 µM", "setting": "[3]", "result": -15, "unit": "%"}
    ]},
    {"smiles": "Cc1ccn2c(-c3csc(Nc4ccccn4)n3)c(C)nc2c1", "values": [
      {"measurement": "inhibition at 15 µM", "setting": "[3]", "result": 48, "unit": "%"}
    ]},
    {"smiles": "COc1ccc(-c2nc(-c3ccc(O)cc3O)cs2)c(OC)c1", "values": [
      {"measurement": "inhibition at 15 µM", "setting": "[3]", "result": 91, "unit": "%"},
      {"measurement": "IC50", "setting": "Tyrosinase", "result": 2000, "unit": "nM"}
    ]},
    {"smiles": "Cc1ccnc(Nc2nc(-c3ccc(O)cc3O)cs2)c1", "values": [
      {"measurement": "inhibition at 15 µM", "setting": "[3]", "result": 83, "unit": "%"},
      {"measurement": "IC50", "setting": "Tyrosinase", "result": 100, "unit": "nM"}
    ]},
    {"smiles": "Cc1ccc(-c2csc(Nc3cc(C)ccn3)n2)cc1", "values": [
      {"measurement": "inhibition at 15 µM", "setting": "[3]", "result": 75, "unit": "%"}
    ]},
    {"smiles": "C/C(=N\\NC(=N)SC1CC(=O)N(c2ccc(Cl)cc2)C1=O)c1cccs1", "note": "(stereo not drawn)", "values": [
      {"measurement": "inhibition", "setting": "[1]", "result": 25, "unit": "%"},
      {"measurement": "inhibition", "setting": "[2]", "result": 40, "unit": "%"},
      {"measurement": "inhibition at 15 µM", "setting": "[3]", "result": 19, "unit": "%"}
    ]},
    {"smiles": "C/C(=N\\NC(=S)Nc1cccc(C)c1)c1cccc(N)c1", "values": [
      {"measurement": "inhibition", "setting": "[1]", "result": 44, "unit": "%"},
      {"measurement": "inhibition", "setting": "[2]", "result": 52, "unit": "%"},
      {"measurement": "inhibition at 15 µM", "setting": "[3]", "result": 38, "unit": "%"}
    ]},
    {"smiles": "CC(=O)Nc1ccc(Nc2nc(-c3c(C)nc4ccc(C)cn34)cs2)cc1", "values": [
      {"measurement": "inhibition", "setting": "[1]", "result": 36, "unit": "%"},
      {"measurement": "inhibition", "setting": "[2]", "result": 46, "unit": "%"},
      {"measurement": "Activity", "setting": "MNT1", "result": "Toxic"}
    ]},
    {"smiles": "Cc1cccnc1Nc1nc(-c2ccc(O)cc2O)cs1", "values": [
      {"measurement": "inhibition at 15 µM", "setting": "[3]", "result": 74, "unit": "%"}
    ]},
    {"smiles": "O=S(=O)(c1ccc(NC(=S)Nc2ccccc2)cc1)N1CCCCC1", "values": [
      {"measurement": "inhibition", "setting": "[1]", "result": 23, "unit": "%"},
      {"measurement": "inhibition", "setting": "[2]", "result": 48, "unit": "%"},
      {"measurement": "inhibition at 15 µM", "setting": "[3]", "result": 56, "unit": "%"}
    ]}
  ]
}
